Experimental findings from ChEMBL document CHEMBL3526122, “Identification of UDP-glucuronosyltransferases responsible for the glucuronidation of darexaban, an oral factor Xa inhibitor, in human liver and intestine” (Drug Metab Dispos, 2012) are described below.

A value given as a limit tells only on which side of the number the result lay.

The target in data set [1] is T1, UDP-glucuronosyltransferase 1A8 (Homo sapiens, UniProt Q9HAW9).
T1 sequence (Q9HAW9 whole entry): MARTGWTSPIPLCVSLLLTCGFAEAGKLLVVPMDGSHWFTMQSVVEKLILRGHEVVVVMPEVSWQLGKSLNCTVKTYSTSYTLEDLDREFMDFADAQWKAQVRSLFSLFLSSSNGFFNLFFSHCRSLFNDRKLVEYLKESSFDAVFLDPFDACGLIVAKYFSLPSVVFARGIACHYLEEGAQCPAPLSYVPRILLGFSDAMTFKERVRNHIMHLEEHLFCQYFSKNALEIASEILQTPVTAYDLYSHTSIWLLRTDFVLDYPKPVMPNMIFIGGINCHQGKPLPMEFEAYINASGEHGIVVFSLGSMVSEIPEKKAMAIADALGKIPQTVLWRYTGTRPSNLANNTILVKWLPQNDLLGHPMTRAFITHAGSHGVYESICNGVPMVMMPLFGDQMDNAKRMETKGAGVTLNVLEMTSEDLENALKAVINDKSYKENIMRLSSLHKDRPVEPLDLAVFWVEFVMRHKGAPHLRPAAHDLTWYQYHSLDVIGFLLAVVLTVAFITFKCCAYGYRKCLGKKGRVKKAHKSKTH
Put plainly: Ratio of Ki to Km for human recombinant UGT1A8 expressed in baculovirus-infected insect cells. It counts as ADME. The note with it: recombinant enzyme.

Data set [2] can be described thus: Intrinsic clearance in human intestinal microsomes assessed per mg of protein at 1 to 250 uM after 5 mins in presence of UDPGA. It counts as ADME, Intestine, Microsome.
Data set [3] is described as follows: Drug metabolism in human intestinal microsomes assessed as glucuronidation after 5 mins by Michaelis-Menten plot analysis in presence of UDPGA. In kind it is ADME, Intestine, Microsome.
Data set [4] addresses T2, UDP-glucuronosyltransferase 1A9 (Homo sapiens, UniProt O60656).
T2 sequence (O60656 whole entry): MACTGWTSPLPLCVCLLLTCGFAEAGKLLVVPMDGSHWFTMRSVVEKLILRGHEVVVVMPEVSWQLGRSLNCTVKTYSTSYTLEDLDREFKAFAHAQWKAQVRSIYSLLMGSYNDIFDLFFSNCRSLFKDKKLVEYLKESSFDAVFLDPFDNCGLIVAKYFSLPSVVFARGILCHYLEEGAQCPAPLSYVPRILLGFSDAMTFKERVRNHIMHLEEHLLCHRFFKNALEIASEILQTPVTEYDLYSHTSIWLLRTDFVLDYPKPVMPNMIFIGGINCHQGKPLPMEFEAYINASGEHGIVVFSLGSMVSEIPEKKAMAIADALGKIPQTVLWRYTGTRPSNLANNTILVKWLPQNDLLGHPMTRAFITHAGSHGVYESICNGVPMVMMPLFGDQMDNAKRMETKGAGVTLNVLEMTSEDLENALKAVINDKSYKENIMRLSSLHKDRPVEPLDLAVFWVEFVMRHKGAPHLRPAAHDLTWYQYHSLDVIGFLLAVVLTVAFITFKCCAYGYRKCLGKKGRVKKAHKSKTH
Put plainly: Activity of recombinant human UGT1A9 expressed in baculovirus-infected insect cells assessed as enzyme-mediated glucuronidation per mg of protein after 5 mins in presence of UDPGA. It counts as ADME.

Data set [5] deals with T3, UDP-glucuronosyltransferase 1A4 (Homo sapiens, UniProt P22310).
T3 sequence (P22310 whole entry): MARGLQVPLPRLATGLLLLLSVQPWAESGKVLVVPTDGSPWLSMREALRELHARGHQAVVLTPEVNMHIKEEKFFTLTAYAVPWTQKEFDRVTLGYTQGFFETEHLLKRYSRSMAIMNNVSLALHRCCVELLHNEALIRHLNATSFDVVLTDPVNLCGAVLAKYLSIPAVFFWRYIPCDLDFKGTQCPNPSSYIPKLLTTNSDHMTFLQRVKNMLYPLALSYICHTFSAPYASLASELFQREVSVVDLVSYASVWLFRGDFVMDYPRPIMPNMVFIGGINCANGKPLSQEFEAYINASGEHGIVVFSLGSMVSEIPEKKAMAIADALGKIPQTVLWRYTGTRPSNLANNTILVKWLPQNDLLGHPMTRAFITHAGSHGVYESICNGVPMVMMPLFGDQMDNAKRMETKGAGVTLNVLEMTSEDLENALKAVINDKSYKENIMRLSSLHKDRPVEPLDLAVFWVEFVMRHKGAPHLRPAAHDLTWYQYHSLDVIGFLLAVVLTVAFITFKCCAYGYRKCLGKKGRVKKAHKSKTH
In words: Activity of human recombinant UGT1A4 expressed in baculovirus-infected insect cells assessed as enzyme-mediated glucuronidation per mg of protein after 10 mins in presence of UDPGA. It counts as ADME.

The test system of another data set is Liver microsome. Put plainly: Drug metabolism in human liver microsomes assessed as glucuronidation per mg of protein after 10 mins by Michaelis-Menten plot analysis in presence of UDPGA and 0.1% fatty acid free BSA. In kind it is ADME. For orientation: Liver microsomes are a subcellular fraction often used to study metabolism.
In data set [6] the target is T2, UDP-glucuronosyltransferase 1A9. In words: Activity of human recombinant UGT1A9 expressed in baculovirus-infected insect cells assessed as unbound intrinsic clearance for enzyme-mediated glucuronidation per mg of protein after 5 mins by Michaelis-Menten plot analysis in presence of UDPGA and absence of fatty acid free BSA. In kind it is ADME.
The nature of data set [7]: Drug metabolism in human intestinal microsomes assessed as glucuronidation after 10 mins by Michaelis-Menten plot. In kind it is ADME, Intestine, Microsome.
Data set [8] can be described thus: Drug metabolism in human liver microsomes assessed as glucuronidation at 30 uM after 5 mins by LC-MS/MS analysis relative to vehicle-treated control in presence of bilirubin and UDPGA. It counts as ADME. The note with it: with bilirubin, read-out: Drug metabolism.
Data set [9] in a line: Fraction unbound in human liver microsomes at 1 to 250 uM after 10 mins by ultrafiltration method in presence of 0.1% fatty acid free BSA. In kind it is ADME.
Data set [10] in a line: Fraction unbound in human liver microsomes at 1 to 250 uM after 10 mins by ultrafiltration method in presence of 0.5% fatty acid free BSA. In kind it is ADME.
Data set [11] can be described thus: Drug metabolism in human liver microsomes assessed as glucuronidation after 10 mins by Michaelis-Menten plot analysis in presence of UDPGA and 0.5% fatty acid free BSA. In kind it is ADME. As to conditions: read-out: Km(unbound).
Data set [12] is described as follows: Drug metabolism in human liver microsomes assessed as glucuronidation after 10 mins by Michaelis-Menten plot analysis in presence of UDPGA and 2% fatty acid free BSA. It counts as ADME. As to conditions: read-out: Km(unbound).

Turning to `COc1ccc(C(=O)Nc2cccc(O)c2NC(=O)c2ccc(N3CCCN(C)CC3)cc2)cc1.O=C(O)CCC(=O)O`, the Ratio in data set [1] was found to be 30. Further, the clearance in [2] is 166 µL/min/mg. Also, the Km at 5 min in data set [3] worked out at 27.3 µM. In addition, the Drug metabolism in data set [4] was 2.43 nmol/min/mg; in data set [5], less than 0.01 nmol/min/mg. Besides, the maximal velocity (Vmax) in the data set on Liver microsome came to 3.25 nmol/min/mg. Further, in [6], the CL free amounted to 138 µL/min/mg. Further, the Km at 10 min in [7] is 27.3 µM; in data set [11], 17.7 µM; in data set [12] it was 17.6 µM. The activity at 5 min, 30 µM in data set [8] was 59.9%. The fraction unbound at 10 min, up to 250 µM in data set [9] was determined as 0.72; in [10] it was 0.517.

The term Km denotes the substrate concentration at which the rate is half of its maximum. As usually defined, the Vmax is the rate approached at saturating substrate. As a reminder, the fraction unbound is the share of the substance not bound to proteins or other matrix.
